Measurements as given in patent US7456152B2, “Peptide inhibitors of thrombin as potent anticoagulants” (priority 2004, dated 2008).
“And” between values parts separate entries of the source, which are not always exact repeats. Equal entries are not always repeated. Where two headings read alike, the source gives them in different places. Ends that are not written are not given here.

Columns and labels:
human α-thrombin [1] = target: T1, human α-thrombin (Homo sapiens, UniProt P00734); assay: Clotting assay: fibrinogen clotting by human thrombin, concentration doubling the clotting time (DCT) = IC50; type: biochemical
T1 construct: Bovine and human α-thrombins were supplied by Haematologic Technologies Inc (VT, USA); cleaved off efficiently by thrombin to generate the free N-terminus of the A-chain of human thrombin; purchased Haematologic Technologies Inc (VT, USA)
Protocol: The clotting assays were carried out by use of the protocols described previously (DiMaio, J., Gibbs, B., Munn, D., Lefebvre, J., Ni, F., and Konishi, Y. (1990) J. Biol. Chem. 265, 21698-21703; and Witting, J. I., Bourdon, P., Brezniak, D. V., Maraganore, J. M., and Fenton, J. W. (1992) Biochem. J. 283 (Pt 3), 737-743) The assay employs bovine plasma fibrinogen dissolved at 0.1% in 50 mM Tris-Cl, 100 mM NaCl, 0.1% PEG-8000 at pH 7.6 (i.e. the clotting buffer). Each assay mixture contained a certain concentration of the peptide, and the reaction was started by the addition of human thrombin to a final concentration of 0.1 NIH unit/ml. Optical absorbance of the assay mixtures was measured at 420 nm and 37° C. using the Spectramax™ plate reader. The onset clotting time was determined as an intersection of the baseline and the initial slope of the O.D. change as a result of fibrin clot formation. The concentration of a peptide needed to double the clotting time (DCT) was defined as IC50. Peptide concentrations were determined by comparing the O.D.280 values of peptide stock solutions in the clotting buffer (vide supra) with the predicted extinction coefficient for each peptide (Gill, S. C. and von Hippel, P. H. (1989) Anal. Biochem. 182, 319-326).
The peptide concentration for doubling the clotting time (DCT) was defined as the IC50 value.

human α-thrombin [2] = target: T1, human α-thrombin; assay: Inhibition of the amidolytic activity of thrombin (Tos-Gly-Pro-Arg-p-nitroanilide hydrolysis); type: biochemical
Protocol: Kinetics of thrombin-catalyzed hydrolysis of the chromogenic substrate Tos-Gly-Pro-Arg-p-nitroanilide were followed by absorbance at 405 nm on a Spectramax plate reader thermostated at either 25° C. or 37° C. according to the method of Maragnore et al (supra). The concentrations of Tos-Gly-Pro-Arg-p-nitroanilide ranged from 2 to 400 μM. Initial rates were calculated under conditions of <15% hydrolysis of the total substrate. The KM and Vmax values were calculated accordingly and kcat values were determined by dividing Vmax by the enzyme (thrombin) concentration. The inhibition assays were performed in the clotting buffer with a certain fixed concentration of α-thrombin (˜0.3 nM) such that linear progress curves were achieved within at least 15 min in the absence of the inhibition. The total volume of the solution was fixed at 200 μl. Reactions were initiated by addition of the chromogenic substrate to the wells containing thrombin and a certain concentration of the peptide inhibitors premixed for less than 2 min. Alternatively, the substrate was first mixed with the peptide inhibitor and the total volume was adjusted to 120 μL using the clotting buffer. Eighty microliters of human α-thrombin in the clotting buffer (˜0.3 nM final concentration) was added to initiate the reaction. The concentration of the peptides ranged from 0.5 nM to 10 μM. Kinetics data from initial rate experiments were used to construct Lineweaver-Burke plot; i.e. the relationship of (substrate concentration)^−1 versus (initial velocity)^−1 which. were analysed by linear regression with MicroCal Origin 4.1 program (MicroCal, MD) or using the GraphPad Prism software. The Ki values of the inhibitors were determined using the equation: Ki=[I]/{(SL0/SL1)−1}, where
[I] is the inhibitor concentration,
SL0 is the slope of the reaction in the absence of inhibitors, and
SL1 is the slope of the reaction in the presence of the inhibitor.
Alternatively, Dixon plots of inverse velocity versus the inhibitor concentrations were generated with the Sigmaplot™ software. Every Dixon plot contained an array of data corresponding to different substrate concentrations and the Ki values were determined from the intersections. Following Peptide Cleavage by HPLC

human α-thrombin [3] = target: T1, human α-thrombin; assay: Peptide cleavage by thrombin followed by HPLC; type: biochemical
Protocol: Previously reported methods (DiMaio, J., Gibbs, B., Munn; D., Lefebvre, J., Ni, F., and Konishi, Y. (1990) J. Biol. Chem. 265, 21698-21703; and Witting, J. I., Bourdon, P., Brezniak, D. V., Maraganore, J. M., and Fenton, J. W. (1992) Biochem. J. 283 (Pt 3), 737-743) were employed with some modifications (as detailed in the Results section and FIG. 18) to determine whether some bivalent peptides are cleaved by thrombin. Each peptide was dissolved in the clotting buffer at a final concentration of 2.0 μM and incubated at 25° C. with or without 2 μM of human α-thrombin for up to 40 hrs. The samples were then boiled for 2 min to stop the reaction, and centrifuged. The supernatant was acidified by addition of concentrated acetic acid before being loaded on an analytical HPLC C18 column and eluted with a linear gradient of 0%-50% (v/v) acetonitrile.
(§1) The FN22 peptide was incubated with thrombin at 25° C. in order to investigate the stability of the peptide in complex with thrombin. The progress of peptide cleavage by thrombin was monitored and analyzed through the HPLC profiles of the FN22 peptide in the absence or presence of thrombin for different incubation times. […] In the clotting assay, the FN22 peptide at a concentration of 400 nM was premixed with thrombin for different times of incubation before initiating the clotting reaction. […]

human α-thrombin [4] = target: T1, human α-thrombin; assay: Stability of peptides pre-incubated with thrombin, read by the clotting assay; type: biochemical; settings: 30 hrs of incubation, 25° C.
Protocol: as §1, with “reaction. The cleavage of the peptide by thrombin is indicated by a reduced clotting time with increasing incubation times.” for “reaction.”
In FIG. 18C, curve (1) represents the clotting assay curve recorded for a freshly-prepared stock solution of thrombin in the absence of peptide inhibitors, curves (2) and (3) represent the clotting curves recorded under the same condition as in (1) except that thrombin stood at 4° C. and 25° C., respectively, for 30 hrs, curves (4) and (5) represent the clotting curves recorded under the same condition as that in (3) except that the FN22 peptide (400 nM, curve 4) and FD22 (100 nM, curve 5) were mixed with thrombin during incubation, and curves (6) and (7) represent the clotting curves recorded under the same condition as that in (3) except that FN22 (400 nM, curve 6) and FD22 (100 nM, curve 7) were freshly-prepared intact peptides. […]

human α-thrombin [5] = target: T1, human α-thrombin; assay: Digestion of 15N-labelled FD22 at the Arg(P1)-Pro(P1′) bond by human α-thrombin; type: biochemical; settings: ~1 mM 15N-labelled peptide, 5 μM human α-thrombin
Protocol: After the peptide was incubated with thrombin at 25° C. for 40 hrs, around 90% of the intact FD22 peptide still remained as shown by use of HPLC analysis (FIG. 18B). In the clotting assay, the FD22 peptide at 100 nM was premixed with thrombin for different times before initiation of clotting. The peptide thus prepared had the clotting time reduced by only 12% after 30 hrs of incubation with thrombin. Indeed, the ^15N-labelled FD22 with a concentration of ˜1 mM (FIG. 16D) was digested completely at the Arg(P1)-Pro(P1′) bond by a 5 μM concentration of human α-thrombin only after more than 60 hrs of incubation.

human α-thrombin [6] = target: T1, human α-thrombin; settings: data from the published reports of DiMaio and Maraganore; read-out: Clotting assay, 37° C. (IC50); cited from earlier work
human α-thrombin [7] = target: T1, human α-thrombin; settings: data from the published reports of DiMaio and Maraganore; read-out: Amidolytic assay (Ki); cited from earlier work
[8] = Amidolytic assay, 25° C. (Ki, nM), Tos-Gly-Pro-Arg-pNA, 25° C.

Compound: CC[C@H](C)[C@H](NC(=O)[C@H](CCC(=O)O)NC(=O)[C@H](CCC(=O)O)NC(=O)[C@H](Cc1ccccc1)NC(=O)[C@H](CC(=O)O)NC(=O)CNC(=O)[C@H](CC(=O)O)NC(=O)[C@H](CC(N)=O)NC(=O)[C@H](Cc1c[nH]cn1)NC(=O)[C@H](CO)NC(=O)[C@H](CCC(N)=O)NC(=O)[C@@H]1CCCN1C(=O)[C@H](CCCNC(=N)N)NC(=O)[C@@H]1CCCN1C(=O)[C@H](CC(=O)O)NC(=O)[C@@H](N)Cc1ccccc1)C(=O)N1CCC[C@H]1C(=O)N[C@@H](CCC(=O)O)C(=O)N[C@@H](CCC(=O)O)C(=O)N[C@@H](Cc1ccc(O)cc1)C(=O)N[C@@H](CC(C)C)C(=O)N[C@@H](CCC(N)=O)C(=O)O [FD22]
- IC50 (human α-thrombin [1]): ~50 nM and 45 nM and ~45 nM
- Ki (human α-thrombin [2]; [8]): ~55 nM
- intact peptide remaining (human α-thrombin [3]; incubated with thrombin at 25° C. for 40 hrs): around 90%
- reduction of clotting time (human α-thrombin [4]; peptide 100 nM premixed with thrombin): 12%
- incubation time until complete digestion at the Arg(P1)-Pro(P1′) bond (human α-thrombin [5]): more than 60 hrs

Compound: CC[C@H](C)[C@H](NC(=O)[C@H](CCC(=O)O)NC(=O)[C@H](CCC(=O)O)NC(=O)[C@H](Cc1ccccc1)NC(=O)[C@H](CC(=O)O)NC(=O)CNC(=O)[C@H](CC(=O)O)NC(=O)[C@H](CC(N)=O)NC(=O)[C@H](Cc1c[nH]cn1)NC(=O)[C@H](CO)NC(=O)[C@H](CCC(N)=O)NC(=O)[C@@H]1CCCN1C(=O)[C@H](CCCNC(=N)N)NC(=O)[C@@H]1CCCN1C(=O)[C@H](CC(N)=O)NC(=O)[C@@H](N)Cc1ccccc1)C(=O)N1CCC[C@H]1C(=O)N[C@@H](CCC(=O)O)C(=O)N[C@@H](CCC(=O)O)C(=O)N[C@@H](Cc1ccc(O)cc1)C(=O)N[C@@H](CC(C)C)C(=O)N[C@@H](CCC(N)=O)C(=O)O [FN22]
- Ki (human α-thrombin [2]; [8]): 80 ± 10 nM
- kcat in the presence of the peptide (human α-thrombin [2]; FN22 at 80 μM, 130 without peptide): 115 s⁻¹
- mode of inhibition (human α-thrombin [2]; substrate concentrations near the KM): competitive
- peptide cleaved by thrombin (human α-thrombin [3]; 2.0 μM peptide, 2.0 μM human α-thrombin, 25° C., after 40 hours): about 30%
- reduction of clotting time compared to the control (human α-thrombin [4]; peptide 400 nM premixed with thrombin): 41%

Compound: CC[C@H](C)[C@H](NC(=O)[C@H](CCC(=O)O)NC(=O)[C@H](CCC(=O)O)NC(=O)[C@H](Cc1ccccc1)NC(=O)[C@H](CC(=O)O)NC(=O)CNC(=O)[C@H](CC(=O)O)NC(=O)[C@H](CC(N)=O)NC(=O)[C@H](Cc1c[nH]cn1)NC(=O)[C@H](CO)NC(=O)[C@H](CCC(N)=O)NC(=O)[C@@H]1CCCN1C(=O)[C@H](CCCNC(=N)N)NC(=O)[C@@H]1CCCN1C(=O)[C@H](CC(N)=O)NC(=O)[C@@H](N)Cc1ccccc1)C(=O)N1CCC[C@H]1C(=O)N[C@@H](CCC(=O)O)C(=O)N[C@@H](CCC(=O)O)C(=O)N[C@@H](Cc1ccc(O)cc1)C(=O)N[C@@H](CC(C)C)C(=O)N[C@@H](CCC(N)=O)C(=O)O [FN22^(a)]
- IC50 (human α-thrombin [1]): 150 ± 15 nM
- Ki (human α-thrombin [2]; [8]): 100 ± 10 nM

Compound: CC[C@H](C)[C@H](NC(=O)[C@H](CCC(N)=O)NC(=O)[C@@H]1CCCN1C(=O)[C@H](CCCNC(=N)N)NC(=O)[C@@H]1CCCN1C(=O)[C@H](CCC(N)=O)NC(=O)[C@@H](NC(=O)[C@H](CO)NC(=O)CN)[C@@H](C)CC)C(=O)N[C@@H](Cc1c[nH]cn1)C(=O)N[C@@H](CC(N)=O)C(=O)N[C@@H](CC(=O)O)C(=O)NCC(=O)N[C@@H](CC(=O)O)C(=O)N[C@@H](Cc1ccccc1)C(=O)N[C@@H](CCC(=O)O)C(=O)N[C@@H](CCC(=O)O)C(=O)N[C@H](C(=O)N1CCC[C@H]1C(=O)N[C@@H](CCC(=O)O)C(=O)N[C@@H](CCC(=O)O)C(=O)N[C@@H](Cc1ccc(O)cc1)C(=O)N[C@@H](CC(C)C)C(=O)N[C@@H](CCC(N)=O)C(=O)O)[C@@H](C)CC [GS-IQ22-I]
- IC50 (human α-thrombin [1]): 10 ± 1 nM
- Ki (human α-thrombin [2]; [8]): > 400 nM
- amidolytic activity of thrombin in the presence of the peptide (human α-thrombin [2]; up to 400 nM in concentration): little affected

Compound: FDPRPGGGGCNGDFEEIPEEYL [FD21-4GN]
- IC50 (human α-thrombin [1]; peptide concentration doubling the clotting time (DCT), 37° C., '>' values: no delay in clotting time up to the concentration shown, read-out: Clotting assay, 37° C. (IC50)): 208 ± 8 nM
- Ki (human α-thrombin [2]; read-out: Amidolytic assay, 25° C. (Ki), Tos-Gly-Pro-Arg-pNA, 25° C.): 300 ± 20 nM

Compound: FNPRP [FN, FNPRP]
- IC50 (human α-thrombin [1]): > 100000 nM
- IC50 values (in words) (human α-thrombin [1]; clotting assay, FNPRP peptide alone): submillimolar
- Ki (human α-thrombin [2]; [8]): > 2000 nM

Compound: WDPRPQLHNDGDFEPIPEEYLQ [WD22-L-P]
- IC50 (human α-thrombin [1]): ~26 nM and 26 nM
- Ki (human α-thrombin [2]; [8]): 39 ± 4 nM

Compound: WDPRPQRHNDGDFEPIPEEYLQ [WD22-R-P]
- IC50 (human α-thrombin [1]): ~6.7 nM and 6.7 nM
- Ki (human α-thrombin [2]): 171 ± 12 nM

Compound: WDPRPQRHNDGDYEPIPEEYLQ [WD22-R-YP]
- IC50 (human α-thrombin [1]): 4.5 ± 2 nM
- Ki (human α-thrombin [2]): 358 ± 23 nM

Compound: dFPRPQSHNDGDFEEIPEEYL [P53^(e)]
- IC50 (human α-thrombin [6]): 4.1 ± 0.8 nM
- Ki (human α-thrombin [7]): 2.8 ± 0.9 nM
